# Results published in ChEMBL document CHEMBL1201862, “PubChem BioAssay data set” (2004).
# Active and inactive are the calls of the source. Cut-off read from the data, not from the text of the source, for most assays here: actives have a measured EC50 and inactives only a lower limit.
# Assays:
# [1] = THP-1 cell cytotoxicity, dose response, cytotoxicity control for Vif-APOBEC3G degradation inhibitor project, THP-1 cells (AID 1117359); format: functional; conditions: Human immunodeficiency virus 1, THP-1
# Vero = Vero cell cytotoxicity, cytotoxicity control for flavivirus capping enzyme inhibitors (AID 588742); format: functional; conditions: Chlorocebus sabaeus
# [2] = molecular target: T1, Calpain-2 catalytic subunit (Sus scrofa, UniProt P43367); assay: pig calpain II inhibitor potency, dose response, biochemical, fluorogenic peptide substrate (AID 1420); format: functional
# T1 sequence (P43367 whole entry): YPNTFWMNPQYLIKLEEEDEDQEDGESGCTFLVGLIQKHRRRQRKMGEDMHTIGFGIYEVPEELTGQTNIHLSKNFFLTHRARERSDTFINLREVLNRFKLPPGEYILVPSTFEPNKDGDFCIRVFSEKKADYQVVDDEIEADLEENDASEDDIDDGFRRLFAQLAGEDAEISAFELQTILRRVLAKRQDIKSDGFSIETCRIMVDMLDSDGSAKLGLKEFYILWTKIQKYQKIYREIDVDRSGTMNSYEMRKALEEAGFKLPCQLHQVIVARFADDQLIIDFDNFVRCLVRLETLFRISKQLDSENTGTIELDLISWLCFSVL
# [3] = Luminescence Cell-Based Dose Response HTS to Identify Inhibitors of 5'UTR Stem-Loop Driven Prion Protein mRNA Translation in H4 Neuroglioblastoma Cells. [Related pubchem assays: 1827 (Project Summary), 1813 (Primary HTS)]; format: functional
# [4] = inhibitors of intracellular T. cruzi replication, confirmation, NIH3T3 host cells, beta-gal luminescence (AID 2044); format: functional, cell-based;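 note: intracellular parasites grown in NIH/3T3 mouse fibroblasts as host cells; luminescent beta-galactosidase reporter signal from transgenic T. cruzi replicating inside host cells; inhibitors lower the luminescence signal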
# [5] = inhibitors of firefly luciferase expression or activity, dose response, H4 neuroglioma cells, luminescence (AID 1990); format: functional, cell-based
# [6] = cytotoxicity toward NIH3T3 fibroblasts, dose response, counter-screen, cell-based, ATP luminescence, mouse fibroblasts (AID 2010); format: functional;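 note: cells exposed to compound for about 90 hours before reading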
# INS1 = assay: beta cell apoptosis inhibitors, cytokine rescue, dose response, luminescence, retest (AID 449756); format: functional, cell-based; conditions: Rattus norvegicus;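 note: cell death triggered by IL-1 beta plus TNF-alpha plus IFN-gamma mixture; protective hits raise ATP signal compared with cytokine alone wells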
# [7] = inhibitors of SNCA 5'UTR-driven reporter translation, confirmation, H4 neuroglioma cells, luminescence (AID 1988); format: functional, cell-based
# [8] = molecular target: Mitogen-activated protein kinase 10 (Homo sapiens, UniProt P53779); assay: Dose response biochemical screening assay for inhibitors of c-Jun N-Terminal Kinase 3 (JNK3). [Related pubchem assays: 746 ]
# Mitogen-activated protein kinase 10, sequence (P53779 whole entry): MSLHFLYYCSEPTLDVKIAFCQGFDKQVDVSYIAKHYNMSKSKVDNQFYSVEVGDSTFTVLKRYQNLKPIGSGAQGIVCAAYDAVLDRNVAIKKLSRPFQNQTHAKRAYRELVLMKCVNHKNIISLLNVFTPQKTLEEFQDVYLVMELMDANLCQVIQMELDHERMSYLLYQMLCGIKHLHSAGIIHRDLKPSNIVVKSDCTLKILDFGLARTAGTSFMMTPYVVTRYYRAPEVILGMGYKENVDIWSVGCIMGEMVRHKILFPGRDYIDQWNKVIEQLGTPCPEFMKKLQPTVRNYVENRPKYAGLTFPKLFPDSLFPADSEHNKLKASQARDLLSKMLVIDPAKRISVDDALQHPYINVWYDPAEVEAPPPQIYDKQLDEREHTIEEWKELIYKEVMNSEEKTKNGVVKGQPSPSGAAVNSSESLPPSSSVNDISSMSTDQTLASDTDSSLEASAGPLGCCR
# [9] = Luminescence Cell-Based Dose Response to Identify Activators of 5'UTR Stem-Loop Driven Prion Protein mRNA Translation in H4-C Neuroglioblastoma Cells. [Related pubchem assays: 1829 (Project Summary), 1814 (Primary HTS)]; format: functional
# [10] = Luminescence Cell-Based Dose Response to Identify Activators of Luciferase Translation or Activity in H4-C Neuroglioblastoma Cells. [Related pubchem assays: 1829 (Project Summary), 1814 (Primary HTS)]; format: functional
# H4 = assay: Luminescence Cell-Based Dose Response HTS to Identify Activators of 5'UTR Stem-Loop Driven Prion Protein mRNA Translation in H4 Neuroglioblastoma Cells. [Related pubchem assays: 1829 (Project Summary), 1814 (Primary HTS)]; format: functional; conditions: Homo sapiens
# [11] = Luminescence Cell-Based Dose Response HTS to Identify Activators of Luciferase Translation or Activity in H4 […] Cells. [Related pubchem assays: 1829 (Project Summary), 1814 (Primary HTS)]; format: functional
# [12] = Luminescence Cell-Based Dose Confirmation to Identify Activators of 5'UTR Stem-Loop Driven Alpha-Synuclein mRNA Translation in H4 Neuroglioblastoma Cells. [Related pubchem assays: 1829 (Project Summary), 1814 (Primary HTS)]; format: functional
# [13] = Luminescence Cell-Based Dose Confirmation HTS to Identify Activators of 5'UTR Stem-Loop Driven Alpha-Synuclein mRNA Translation in H4 Neuroglioblastoma Cells. [Related pubchem assays: 1829 (Project Summary), 1814 (Primary HTS)]; format: functional
# [14] = molecular target: T2, Mannose-6-phosphate isomerase (Homo sapiens, UniProt P34949); assay: human PMI inhibitors, high substrate, primary screen, biochemical, fluorescence intensity, high mannose 6-phosphate (AID 1220)
# T2 sequence (P34949 whole entry): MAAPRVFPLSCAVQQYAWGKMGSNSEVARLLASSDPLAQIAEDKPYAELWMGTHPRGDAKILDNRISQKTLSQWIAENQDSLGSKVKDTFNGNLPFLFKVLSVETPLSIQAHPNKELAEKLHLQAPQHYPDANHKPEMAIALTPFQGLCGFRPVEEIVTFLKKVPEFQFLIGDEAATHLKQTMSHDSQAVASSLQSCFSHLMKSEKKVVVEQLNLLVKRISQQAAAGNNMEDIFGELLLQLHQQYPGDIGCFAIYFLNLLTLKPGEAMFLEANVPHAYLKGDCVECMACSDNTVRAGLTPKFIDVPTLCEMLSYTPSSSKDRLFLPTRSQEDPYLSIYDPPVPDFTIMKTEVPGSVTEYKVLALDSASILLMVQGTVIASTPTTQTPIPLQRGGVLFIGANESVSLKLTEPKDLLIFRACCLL
# [15] = molecular target: T2, Mannose-6-phosphate isomerase; assay: inhibitors of human PMI, primary screen, biochemical, fluorescence intensity, coupled assay (AID 1209)
# [16] = molecular target: Induced myeloid leukemia cell differentiation protein Mcl-1 (Homo sapiens, UniProt Q07820); format: functional
# Induced myeloid leukemia cell differentiation protein Mcl-1, sequence (Q07820 whole entry): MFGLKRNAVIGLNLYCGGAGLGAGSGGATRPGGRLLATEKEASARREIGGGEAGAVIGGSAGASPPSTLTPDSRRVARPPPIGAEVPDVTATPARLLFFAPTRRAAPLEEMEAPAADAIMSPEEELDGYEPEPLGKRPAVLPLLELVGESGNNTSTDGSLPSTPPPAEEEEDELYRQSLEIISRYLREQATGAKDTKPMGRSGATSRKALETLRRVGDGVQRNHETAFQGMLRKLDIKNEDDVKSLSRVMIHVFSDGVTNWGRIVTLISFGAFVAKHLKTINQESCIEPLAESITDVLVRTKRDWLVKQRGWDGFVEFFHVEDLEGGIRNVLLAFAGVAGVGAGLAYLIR
# Large T antigen = Large T antigen (Simian virus 40, UniProt P03070); format: functional, Betapolyomavirus macacae;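 note: Confirmatory-stage PubChem screen for compounds that inhibit SV40 T antigen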
# Large T antigen, sequence (P03070 whole entry): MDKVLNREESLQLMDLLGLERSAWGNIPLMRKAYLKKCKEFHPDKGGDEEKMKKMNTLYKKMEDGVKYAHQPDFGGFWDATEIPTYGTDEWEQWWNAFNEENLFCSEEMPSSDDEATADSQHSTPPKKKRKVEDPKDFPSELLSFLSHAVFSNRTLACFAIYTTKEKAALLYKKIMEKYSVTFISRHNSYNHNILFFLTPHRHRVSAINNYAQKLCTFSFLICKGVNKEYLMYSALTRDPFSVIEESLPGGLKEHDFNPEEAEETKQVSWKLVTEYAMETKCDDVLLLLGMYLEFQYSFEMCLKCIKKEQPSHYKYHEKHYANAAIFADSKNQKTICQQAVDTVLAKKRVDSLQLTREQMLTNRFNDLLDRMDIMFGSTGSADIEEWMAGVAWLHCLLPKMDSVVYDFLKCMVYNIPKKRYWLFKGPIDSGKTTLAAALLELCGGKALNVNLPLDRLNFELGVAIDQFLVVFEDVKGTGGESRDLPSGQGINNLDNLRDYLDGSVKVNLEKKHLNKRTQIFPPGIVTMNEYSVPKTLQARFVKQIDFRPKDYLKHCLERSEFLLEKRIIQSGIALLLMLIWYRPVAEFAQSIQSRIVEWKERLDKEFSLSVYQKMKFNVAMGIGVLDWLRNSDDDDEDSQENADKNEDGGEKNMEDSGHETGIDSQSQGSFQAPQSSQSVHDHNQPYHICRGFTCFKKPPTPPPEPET
# Streptokinase A = molecular target: T3, Streptokinase A (Streptococcus pyogenes serotype M1, UniProt P10520); assay: S. pyogenes streptokinase expression inhibitors, potency, dose response, plasminogen activation absorbance, OD405 (AID 1914); format: functional, Streptococcus pyogenes M1 GAS;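 note: secreted streptokinase activity via plasminogen activation per viability signal from cell pellet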
# T3 sequence (P10520 whole entry): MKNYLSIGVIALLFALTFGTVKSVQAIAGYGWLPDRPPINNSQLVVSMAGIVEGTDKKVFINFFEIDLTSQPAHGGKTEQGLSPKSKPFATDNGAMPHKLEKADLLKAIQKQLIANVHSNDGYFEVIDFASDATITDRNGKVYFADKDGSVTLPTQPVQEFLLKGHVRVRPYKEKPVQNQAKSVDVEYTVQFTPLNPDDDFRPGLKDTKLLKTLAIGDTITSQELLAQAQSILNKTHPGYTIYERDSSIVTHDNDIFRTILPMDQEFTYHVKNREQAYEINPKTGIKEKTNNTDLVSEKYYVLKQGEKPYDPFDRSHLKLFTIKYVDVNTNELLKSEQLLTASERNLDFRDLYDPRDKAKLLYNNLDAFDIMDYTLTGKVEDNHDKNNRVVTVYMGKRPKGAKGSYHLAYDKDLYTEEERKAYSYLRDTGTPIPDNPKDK
# Streptococcus = assay: Group A Streptococcus viability loss, dose response, counter-screen for streptokinase expression inhibitor project, luminescence, BacTiterGlo (AID 1915); format: functional, organism-based;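 note: potency for reduction of bacterial viability or growth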
# [17] = tested on: Streptococcus sp. 'group A'; assay: growth inhibition of control SK(-) GAS strain, dose response, counter-screen for streptokinase expression inhibitor project, luminescence, kanamycin, BacTiterGlo, confirmation (AID 1900); format: functional, organism-based
# [18] = Luminescence Cell-Based Dose Confirmation HTS to Identify Inhibitors of Platelet Dense Granule Release. [Related pubchem assays: 1663 (Primary HTS), 1678 (Summary of Project)]; format: functional
# [19] = Luminescence-based cell-based high throughput dose response assay to identify activators of the DAF-12 from the parasite S. stercoralis (ssDAF-12).; format: functional
# [20] = molecular target: Luciferin 4-monooxygenase (Photinus pyralis, UniProt P08659); assay: firefly luciferase enzyme inhibitors, dose response, biochemical, luminescence (AID 1891)
# Luciferin 4-monooxygenase, sequence (P08659 whole entry, the tested form may be a part): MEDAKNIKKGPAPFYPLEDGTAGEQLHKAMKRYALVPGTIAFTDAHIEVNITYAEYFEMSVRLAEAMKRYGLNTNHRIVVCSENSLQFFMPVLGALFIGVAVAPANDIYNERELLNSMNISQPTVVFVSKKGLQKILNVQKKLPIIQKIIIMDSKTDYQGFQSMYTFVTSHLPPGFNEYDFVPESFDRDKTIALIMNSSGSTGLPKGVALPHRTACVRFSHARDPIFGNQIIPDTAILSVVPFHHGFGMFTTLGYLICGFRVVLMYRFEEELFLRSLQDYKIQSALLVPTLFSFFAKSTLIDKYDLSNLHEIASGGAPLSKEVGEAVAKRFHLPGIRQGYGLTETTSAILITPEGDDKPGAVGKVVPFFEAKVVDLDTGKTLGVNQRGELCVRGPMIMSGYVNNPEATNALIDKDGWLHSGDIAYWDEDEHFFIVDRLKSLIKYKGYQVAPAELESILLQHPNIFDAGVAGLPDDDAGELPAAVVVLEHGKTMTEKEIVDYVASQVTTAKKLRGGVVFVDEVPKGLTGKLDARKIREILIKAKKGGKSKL
# [21] = molecular target: T4, Oxysterols receptor LXR-beta (Homo sapiens, UniProt P55055); assay: LXR agonists, Gal4 luciferase reporter, dose response, counter-screen for ssDAF-12 agonist project, cell-based, luminescence, HEK293, S. stercoralis campaign (AID 720737); format: functional; conditions: read-out: IC50 (the source's name)
# T4 sequence (P55055 whole entry): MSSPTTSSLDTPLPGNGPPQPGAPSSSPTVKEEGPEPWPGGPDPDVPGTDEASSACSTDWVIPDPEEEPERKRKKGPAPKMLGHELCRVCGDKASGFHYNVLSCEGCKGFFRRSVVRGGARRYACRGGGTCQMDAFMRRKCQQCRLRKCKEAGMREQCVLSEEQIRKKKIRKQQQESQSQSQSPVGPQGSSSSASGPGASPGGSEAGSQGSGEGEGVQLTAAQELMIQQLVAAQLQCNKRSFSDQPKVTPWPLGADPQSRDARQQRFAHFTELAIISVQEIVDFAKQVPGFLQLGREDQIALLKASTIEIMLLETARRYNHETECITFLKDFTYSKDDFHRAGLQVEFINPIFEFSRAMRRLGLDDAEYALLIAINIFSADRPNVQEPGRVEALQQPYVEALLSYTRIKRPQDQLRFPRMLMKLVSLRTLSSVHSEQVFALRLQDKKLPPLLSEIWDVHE
# [22] = molecular target: T5, Rac GTPase-activating protein 1 (Homo sapiens, UniProt Q9H0H5); assay: MgcRacGAP GTPase-activating activity inhibitors, confirmation, biochemical, ADP Hunter fluorescence, primary and confirmatory (AID 624330); format: functional
# T5 sequence (Q9H0H5 whole entry): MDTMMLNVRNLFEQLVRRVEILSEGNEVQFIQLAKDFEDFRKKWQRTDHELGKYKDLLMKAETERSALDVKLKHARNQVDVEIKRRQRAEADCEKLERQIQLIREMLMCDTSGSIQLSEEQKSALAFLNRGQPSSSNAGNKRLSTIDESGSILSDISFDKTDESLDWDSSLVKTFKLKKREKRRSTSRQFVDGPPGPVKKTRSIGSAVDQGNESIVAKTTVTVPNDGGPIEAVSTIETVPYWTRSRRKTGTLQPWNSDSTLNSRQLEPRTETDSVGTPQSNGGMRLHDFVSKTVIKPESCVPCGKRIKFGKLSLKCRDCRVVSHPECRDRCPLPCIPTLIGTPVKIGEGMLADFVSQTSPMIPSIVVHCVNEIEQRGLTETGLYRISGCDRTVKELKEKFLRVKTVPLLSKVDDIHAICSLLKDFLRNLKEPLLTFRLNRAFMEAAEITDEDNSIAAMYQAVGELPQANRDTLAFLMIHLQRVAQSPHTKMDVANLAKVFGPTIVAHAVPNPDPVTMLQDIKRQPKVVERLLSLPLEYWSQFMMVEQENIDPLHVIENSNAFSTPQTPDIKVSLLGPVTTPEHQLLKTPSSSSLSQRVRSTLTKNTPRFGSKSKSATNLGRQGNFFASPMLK
structure (smiles),measurement,setting,value
O=C(CN1C(=O)/C(=C\c2cccs2)SC1=S)Nc1cccc(C(=O)O)c1,CC50,[1],> 40 µM (active)
COc1cc(CNc2ccc(O)cc2)cc(Br)c1OCc1ccccc1,CC50,Vero,> 40 µM (active)
same,IC50,[2],13 µM (not active)
same,CC50,[1],> 40 µM (active)
O=[N+]([O-])c1ccccc1-c1cc(-c2ccccc2)cc(-c2ccccc2)[n+]1Cc1ccccc1Cl.[O-][Cl+3]([O-])([O-])[O-],EC50,[3],> 120 µM (not active)
same,EC50,[4],< 0.1 µM (active)
same,EC50,[5],11.3 µM (active)
same,EC50,[6],> 60 µM (not active)
same,AC50,INS1,2.14 µM (active)
same,EC50,cells,0.074 µM (active)
same,EC50,[7],> 120 µM (not active)
C1CCC(OCCN2CCN(CCOC3CCCCC3)CC2)CC1,EC50,[4],< 0.1 µM (active)
same,EC50,[6],> 30 µM (not active)
same,EC50,cells,0.067 µM (active)
O=C(Nc1nncs1)c1ccc(N2C(=O)C3C4C=CC(C4)C3C2=O)cc1 (stereo not given),IC50,[8],62.9 µM (not active)
C#CCSc1nnc(-c2ccc(OC)cc2)o1,EC50,[9],3.33 µM (active)
same,EC50,[10],5.49 µM (active)
same,EC50,H4,> 120 µM (not active)
same,EC50,[11],< 0.1 µM (inconclusive)
same,EC50,[12],0.138 µM (active)
same,EC50,[13],7.23 µM (active)
O=C(NCCSc1ccccc1)c1ccccc1,EC50,[9],0.281 µM (active)
same,EC50,[10],0.347 µM (active)
same,EC50,H4,> 120 µM (not active)
same,EC50,[11],< 0.1 µM (inconclusive)
same,EC50,[12],0.198 µM (active)
Nc1ccc(-n2c(N)c(C(=O)NCc3ccc4c(c3)OCO4)c3nc4ccccc4nc32)cc1,IC50,[8],> 93.1 µM (not active)
CC(=O)C(C(C)=O)c1c(Cl)c(O)c(O)c2c(C(=O)c3ccccc3)coc12,IC50,[14],> 50 µM (not active)
same,IC50,[15],> 50 µM (not active)
Cn1c(C(=O)N2CCN(Cc3ccc4c(c3)OCO4)CC2)cc2c(=O)n(C)c3ccccc3c21,IC50,[8],72.6 µM (not active)
O=C(OCC1O[C@@H](OC(=O)c2cc(O)c(O)c(O)c2)[C@@H](OC(=O)c2cc(O)c(O)c(O)c2)[C@@H](OC(=O)c2cc(O)c(O)c(O)c2)[C@@H]1OC(=O)c1cc(O)c(O)c(O)c1)c1cc(O)c(O)c(O)c1 (stereo not given in full),IC50,[16],4.54 µM (active)
same,CC50,[1],20.6 µM (active)
same,IC50,Large T antigen,4.51 µM (active)
Cc1ccc(N2C(=O)CC(Sc3nc[nH]n3)C2=O)cc1 (stereo not given),IC50,[15],> 50 µM (not active)
O=C(N/N=C/c1ccc([N+](=O)[O-])o1)c1cn(-c2ccccc2)nc1-c1ccc(F)cc1,EC50,[4],< 0.1 µM (active)
same,EC50,Streptokinase A,> 150 µM (not active)
same,EC50,[6],> 60 µM (not active)
same,EC50,cells,0.03 µM (active)
same,EC50,Streptococcus,2.99 µM (active)
same,EC50,[17],0.841 µM (active)
COc1ccc(/C=N/Nc2nc3ccccc3s2)cc1O,EC50,[18],5.38 µM (active)
same,IC50,[19],> 67.5 µM (inactive)
same,EC50,[20],0.947 µM (active)
same,EC50,[21],> 67.5 µM (inactive)
same,IC50,[22],102 µM (active)
